# Test system: Phakopsora pachyrhizi
# Assay: Curative control of soy bean rust on soy beans (greenhouse test)
# Type: in vivo
# Settings: 300 ppm aqueous preparation sprayed to run-off after inoculation (curative); soy bean seedlings; assessed after 14 days; untreated plants 60% infected
# Method: The spray soultions were prepared in several steps: The stock solution were prepared by adding a mixture of acetone and/or dimethylsulfoxide and the wetting agent/emulsifier Wettol, which is based on ethoxylated alkylphenoles, in a relation (volume) solvent-emulsifier of 99 to 1 to 25 mg of the compound to give a total of 10 ml. Water was then added to total volume of 100 ml. This stock solution was diluted with the described solvent-emulsifier-water mixture to the given concentration. 1. Curative Control of Soy Bean Rust on Soy Beans Caused by Phakopsora Pachyrhizi Leaves of pot-grown soy bean seedlings were inoculated with spores of Phakopsora pachyrhizi. To ensure the success of the artificial inoculation, the plants were transferred to a humid chamber with a relative humidity of about 95% and 20 to 24° C. for 24 h. The next day the plants were cultivated for 2 days in a greenhouse chamber at 23-27° C. and a relative humidity between 60 and 80%. Then the plants were sprayed to run-off with an aqueous suspension, containing the concentration of active ingredient or their mixture as described below. The plants were allowed to air-dry. Then the trial plants were cultivated for 14 days in a greenhouse chamber at 23-27° C. and a relative humidity between 60 and 80%. The extent of fungal attack on the leaves was visually assessed as % diseased leaf area.
row,Compound,"infection (extent of fungal attack on the leaves, visually assessed as % diseased leaf area)"
1,"CC(C)(C)C(O)(CCCCCOc1ccccc1Cl)Cn1nc[nH]c1=S (stereo not drawn) [Example 16, 1-[2-tert-butyl-7-(2-chlorophenoxy)-2-hydroxyheptyl]-1H-1,2,4-triazole-5(4H)-thione]",0%
2,"CC(C)(C)C(O)(CCCCCOc1ccc(F)cc1F)Cn1nc[nH]c1=S (stereo not drawn) [Example 13, 1-[2-tert-butyl-7-(2,4-difluorophenoxy)-2-hydroxyheptyl]-1H-1,2,4-triazole-5(4H)-thione]",0%
3,"Cc1ccc(OCCCCCC(O)(Cn2nc[nH]c2=S)C(C)(C)C)cc1 (stereo not drawn) [Example 20, 1-[2-tert-butyl-7-(4-methylphenoxy)-2-hydroxyheptyl]-1H-1,2,4-triazole-5(4H)-thione]",0%
4,"CC(C)(C)C(O)(CCCCOc1ccc(F)cc1F)Cn1nc[nH]c1=S (stereo not drawn) [Example 3, 1-[2-tert-Butyl-6-(2,4-difluorophenoxy)-2-hydroxyhexyl]-1H-1,2,4-triazole-5(4H)-thione]",0%
5,"CC(C)(C)C(O)(CCCCCOc1ccc(Cl)cc1)Cn1nc[nH]c1=S (stereo not drawn) [Example 18, 1-[2-tert-butyl-7-(4-chlorophenoxy)-2-hydroxyheptyl]-1H-1,2,4-triazole-5(4H)-thione]",0%
6,"CC(C)(C)C(O)(CCCCCOc1cccc(Cl)c1)Cn1nc[nH]c1=S (stereo not drawn) [Example 17, 1-[2-tert-butyl-7-(3-chlorophenoxy)-2-hydroxyheptyl]-1H-1,2,4-triazole-5(4H)-thione]",0%
7,"CC(C)(C)C(O)(CCCCOc1cccc(Cl)c1)Cn1nc[nH]c1=S (stereo not drawn) [Example 6, 1-[2-tert-Butyl-6-(3-chlorophenoxy)-2-hydroxyhexyl]-1H-1,2,4-triazole-5(4H)-thione]",0%
8,"CC(C)(C)C(O)(CCCCOc1ccccc1)Cn1nc[nH]c1=S (stereo not drawn) [Example 1, 1-(2-tert-Butyl-2-hydroxy-6-phenoxyhexyl)-1H-1,2,4-triazole-5(4H)-thione]",0%
9,"CC(C)(C)C(O)(CCCCOc1ccccc1Cl)Cn1nc[nH]c1=S (stereo not drawn) [Example 4, 1-[2-tert-Butyl-6-(2-chlorophenoxy)-2-hydroxyhexyl]-1H-1,2,4-triazole-5(4H)-thione]",0%
10,CC(C)(C)C(O)(CCCCOc1ccc(Cl)cc1Cl)Cn1nc[nH]c1=S (stereo not drawn) [Example 5],0%
11,"CC(C)(C)C(O)(CCCCCOc1ccccc1F)Cn1nc[nH]c1=S (stereo not drawn) [Example 11, 1-[2-tert-butyl-7-(2-fluorophenoxy)-2-hydroxyheptyl]-1H-1,2,4-triazole-5(4H)-thione]",0%
12,"CC(C)(C)C(O)(CCCCOc1ccccc1F)Cn1nc[nH]c1=S (stereo not drawn) [Example 2, 1-[2-tert-Butyl-6-(2-fluorophenoxy)-2-hydroxyhexyl]-1H-1,2,4-triazole-5(4H)-thione]",0%
